Measurements reported in patent US7476764B2, “Phenylcarboxyamides as beta-secretase inhibitors” (Bristol-Myers Squibb Company, priority 2005, dated 2009).
Where a name gives a salt, the structure may show the parent alone. Read-outs that look alike come from different tables or passages of the source.

Target: T1, BACE1 enzyme (Homo sapiens, UniProt P56817)
T1 construct: The HEK293-9B.A1 cell line, which overexpresses the BACE1 enzyme, was derived from HEK293 cells; endogenous in cells; washed 48,000 x g pellet of the cell homogenate
Experiment: Radioligand displacement assay with a radiolabeled BACE inhibitor on HEK293-9B.A1 cell homogenate
Assay type: binding
Experimental: Radioligand displacement assays with a radiolabeled BACE inhibitor (WO 2004 013098, compound 3, where the methoxy group is substituted for C(^3H)3) were carried out using standard methods (Keen, M. (1999) in Receptor Binding Techniques (Walker, J. M. ed) p. 106 Humana Press, Totowa, N.J.). The HEK293-9B.A1 cell line, which overexpresses the BACE1 enzyme, was derived from HEK293 cells (Simmons, N. L. (1990) A cultured human renal epitheloid cell line responsive to vasoactive intestinal peptide. Exp. Physiol. 75:309-19.) by RAGE™ (Harrington, J. J. et al. (2001) Creation of genome-wide protein expression libraries using random activation of gene expression. Nat. Biotechnol. 19:440-5; U.S. Pat. Nos. 6,410,266 and 6,361,972). T225 flask cultures of HEK293-9B.A1 were grown to 80% confluency in DMEM supplemented with 2 mM L-glutamine, 10 μg/ml penicillin, 10 μg/ml streptomycin, 3 μg/ml puromycin, 100 nM methotrexate, and 10% fetal bovine serum (Invitrogen, Carlsbad, Calif.), harvested, and resuspended at 2×10^8 cells per 10 ml of lysis buffer consisting of 50 mM HEPES pH 7.0 containing a protease inhibitor cocktail of AEBSF 104 μM, aprotinin 80 nM, leupeptin 2 μM, bestatin 4 μM, pepstatin A 1.5 μM, and E-64 1.4 μM (0.1% of protease inhibitor cocktail P8340, Sigma-Aldrich, St. Louis, Mo.) at 4° C. The resuspended cells were homogenized using a Polytron (Brinkman, Westbury, N.Y.) at setting 6 for 10 sec., then centrifuged at 48,000×g for 10 min. The resulting pellet was washed by repeating the resuspension, homogenization and centrifugation steps. The final pellet was resuspended in buffer at 4° C. to yield a total protein concentration of 5 mg/ml, then aliquots were frozen in liquid nitrogen for further storage at −70° C. Immediately before carrying out a binding assay, an aliquot of cell homogenate was thawed and diluted to a concentration of 100 μg/ml in assay buffer consisting of 50 mM HEPES pH 5.0 and 0.1% CHAPSO. Assays were initiated in polypropylene 96-well plates (Costar, Cambridge, Mass.) by the addition of 200 μl of cell homogenate to 50 μl of assay buffer containing 1 nM radioligand (WO 2004 013098, compound 3, where the methoxy group is substituted for C(^3H)3: 80 Ci/mMol) and various concentrations of unlabelled compounds, and incubated for 1.5 hr. at 25° C. Separation of bound from free radioligand was by filtration on GFF glass fiber filters (Innotech Biosystems International, Lansing, Mich.) using an Innotech cell harvester.

[1] = displacement of 1 nM tritiated radioligand, HEK293-9B.A1 homogenate, pH 5.0, 1.5 hr at 25° C., read-out: Activity Rating (activity based on IC50 values)

T1 sequence (P56817 46-501): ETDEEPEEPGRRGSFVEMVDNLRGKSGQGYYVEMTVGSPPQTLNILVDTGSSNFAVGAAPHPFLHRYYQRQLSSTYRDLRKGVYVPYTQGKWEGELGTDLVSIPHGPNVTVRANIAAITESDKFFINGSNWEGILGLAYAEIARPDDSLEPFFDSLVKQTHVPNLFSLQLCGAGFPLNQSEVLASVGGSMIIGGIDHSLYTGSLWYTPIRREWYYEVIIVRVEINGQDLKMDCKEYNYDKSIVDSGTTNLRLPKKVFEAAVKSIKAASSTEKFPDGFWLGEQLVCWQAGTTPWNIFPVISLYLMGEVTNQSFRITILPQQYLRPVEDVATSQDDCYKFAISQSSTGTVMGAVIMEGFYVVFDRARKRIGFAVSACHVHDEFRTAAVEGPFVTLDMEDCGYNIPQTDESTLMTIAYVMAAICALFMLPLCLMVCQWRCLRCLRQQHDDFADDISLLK

Row | Compound | IC50 [1] | IC50
1 | C=CCO/N=C(\C)c1cc(C(=O)N[C@@H](Cc2cc(F)cc(F)c2)[C@H](O)CNCc2cccc(OC)c2)cc(N2CCCCS2(=O)=O)c1 [Example 28, N-[(1S,2R)-1-(3,5-difluoro-benzyl)-2-hydroxy-3-(3-methoxy-benzylamino)-propyl]-3-(1,1-dioxo-1λ^6-[1,2]thiazinan-2-yl)-5-{1-[(E)-allyloxyimino]-ethyl}-benzamide TFA salt] | < 0.1 µM | –
2 | COc1cccc(CNC[C@@H](O)[C@H](Cc2cc(F)cc(F)c2)NC(=O)c2cc(C(C)=O)cc(N(C)S(C)(=O)=O)c2)c1 [Example 29, N-((2S,3R)-4-(3-methoxybenzylamino)-1-(3,5-difluorophenyl)-3-hydroxybutan-2-yl)-3-acetyl-5-(N-methylmethan-2-ylsulfonamido)benzamide TFA salt] | 0.1 to 1 µM | –
3 | CO/N=C(\C)c1cc(C(=O)N[C@@H](Cc2cc(F)cc(F)c2)[C@H](O)CNCc2cccc(OC)c2)cc(N(C)S(C)(=O)=O)c1 [Example 30, N-((2S,3R)-4-(3-methoxybenzylamino)-1-(3,5-difluorophenyl)-3-hydroxybutan-2-yl)-3-((E)-1-(methoxyimino)ethyl)-5-(N-methylmethan-2-ylsulfonamido)benzamide TFA salt] | < 0.1 µM | –
4 | COc1cccc(CNC[C@@H](O)[C@H](Cc2cc(F)cc(F)c2)NC(=O)c2cc(/C(C)=N/OCc3ccccc3)cc(N(C)S(C)(=O)=O)c2)c1 [Example 31, N-((2S,3R)-4-(3-methoxybenzylamino)-1-(3,5-difluorophenyl)-3-hydroxybutan-2-yl)-3-((E)-1-(benzyloxyimino)ethyl)-5-(N-methylmethan-2-ylsulfonamido)benzamide TFA salt] | < 0.1 µM | –
5 | CCCO/N=C(\C)c1cc(C(=O)N[C@@H](Cc2cc(F)cc(F)c2)[C@H](O)CNCc2cccc(OC)c2)cc(N(C)S(C)(=O)=O)c1 [Example 32, N-((2S,3R)-4-(3-methoxybenzylamino)-1-(3,5-difluorophenyl)-3-hydroxybutan-2-yl)-3-((E)-1-(propoxyimino)ethyl)-5-(N-methylmethan-2-ylsulfonamido)benzamide TFA salt] | 0.1 to 1 µM | –
6 | COc1cccc(CNC[C@@H](O)[C@H](Cc2cc(F)cc(F)c2)NC(=O)c2cc(/C(C)=N/OCC(C)C)cc(N(C)S(C)(=O)=O)c2)c1 [Example 33, N-((2S,3R)-4-(3-methoxybenzylamino)-1-(3,5-difluorophenyl)-3-hydroxybutan-2-yl)-3-((E)-1-(isobutoxyimino)ethyl)-5-(N-methylmethan-2-ylsulfonamido)benzamide TFA salt] | 0.1 to 1 µM | –
7 | C=CCO/N=C(\C)c1cc(C(=O)N[C@@H](Cc2cc(F)cc(F)c2)[C@H](O)CNCc2cccc(OC)c2)cc(N(C)S(C)(=O)=O)c1 [Example 34, N-((2S,3R)-4-(3-methoxybenzylamino)-1-(3,5-difluorophenyl)-3-hydroxybutan-2-yl)-3-((E)-1-(allyloxyimino)ethyl)-5-(N-methylmethan-2-ylsulfonamido)benzamide TFA salt] | < 0.1 µM | –
8 | COc1cccc(CNC[C@@H](O)[C@H](Cc2cc(F)cc(F)c2)NC(=O)c2cc(C(C)O)cc(N(C)S(C)(=O)=O)c2)c1 (stereo partly drawn) [Example 35, N-((2S,3R)-4-(3-methoxybenzylamino)-1-(3,5-difluorophenyl)-3-hydroxybutan-2-yl)-3-(1-hydroxyethyl)-5-(N-methylmethan-2-ylsulfonamido)benzamide TFA salt] | < 0.1 µM | –
9 | COc1cccc(CNC[C@@H](O)[C@H](Cc2cc(F)cc(F)c2)NC(=O)c2cc(C(C)=O)cc(N(c3ccccc3)S(C)(=O)=O)c2)c1 [Example 36, N-((2S,3R)-4-(3-methoxybenzylamino)-1-(3,5-difluorophenyl)-3-hydroxybutan-2-yl)-3-acetyl-5-(N-phenylmethan-10-ylsulfonamido)benzamide TFA salt] | < 0.1 µM | –
10 | COc1cccc(CNC[C@@H](O)[C@H](Cc2cc(F)cc(F)c2)NC(=O)c2cc(/C(C)=N/O)cc(N(c3ccccc3)S(C)(=O)=O)c2)c1 [Example 37, N-((2S,3R)-4-(3-methoxybenzylamino)-1-(3,5-difluorophenyl)-3-hydroxybutan-2-yl)-3-((E)-1-(hydroxyimino)ethyl)-5-(N-phenylmethan-10-ylsulfonamido)benzamide] | < 0.1 µM | –
11 | CO/N=C(\C)c1cc(C(=O)N[C@@H](Cc2cc(F)cc(F)c2)[C@H](O)CNCc2cccc(OC)c2)cc(N(c2ccccc2)S(C)(=O)=O)c1 [Example 38, N-((2S,3R)-4-(3-methoxybenzylamino)-1-(3,5-difluorophenyl)-3-hydroxybutan-2-yl)-3-((E)-1-(methoxyimino)ethyl)-5-(N-phenylmethan-10-ylsulfonamido)benzamide] | < 0.1 µM | –
12 | COc1cccc(CNC[C@@H](O)[C@H](Cc2cc(F)cc(F)c2)NC(=O)c2cc(/C(C)=N/OCc3ccccc3)cc(N(c3ccccc3)S(C)(=O)=O)c2)c1 [Example 39, N-((2S,3R)-4-(3-methoxybenzylamino)-1-(3,5-difluorophenyl)-3-hydroxybutan-2-yl)-3-((E)-1-(benzyloxyimino)ethyl)-5-(N-phenylmethan-10-ylsulfonamido)benzamide] | < 0.1 µM | –
13 | COc1cccc(CNC[C@@H](O)[C@H](Cc2cc(F)cc(F)c2)NC(=O)c2cc(C(C)O)cc(N(c3ccccc3)S(C)(=O)=O)c2)c1 (stereo partly drawn) [Example 40, N-((2S,3R)-4-(3-methoxybenzylamino)-1-(3,5-difluorophenyl)-3-hydroxybutan-2-yl)-3-(1-hydroxyethyl)-5-(N-phenylmethan-10-ylsulfonamido)benzamide] | < 0.1 µM | –
14 | COc1cccc(CNC[C@@H](O)[C@H](Cc2cc(F)cc(F)c2)NC(=O)c2cc(/C(C)=N/OCC(C)C)cc(N(c3ccccc3)S(C)(=O)=O)c2)c1 [Example 41, N-((2S,3R)-4-(3-methoxybenzylamino)-1-(3,5-difluorophenyl)-3-hydroxybutan-2-yl)-3-((E)-1-(isobutoxyimino)ethyl)-5-(N-phenylmethan-10-ylsulfonamido)benzamide] | 0.1 to 1 µM | –
15 | C=CCO/N=C(\C)c1cc(C(=O)N[C@@H](Cc2cc(F)cc(F)c2)[C@H](O)CNCc2cccc(OC)c2)cc(N(c2ccccc2)S(C)(=O)=O)c1 [Example 42, N-((2S,3R)-4-(3-methoxybenzylamino)-1-(3,5-difluorophenyl)-3-hydroxybutan-2-yl)-3-((E)-1-(allyloxyimino)ethyl)-5-(N-phenylmethan-10-ylsulfonamido)benzamide] | < 0.1 µM | –
16 | CCCO/N=C(\C)c1cc(C(=O)N[C@@H](Cc2cc(F)cc(F)c2)[C@H](O)CNCc2cccc(OC)c2)cc(N(c2ccccc2)S(C)(=O)=O)c1 [Example 43, N-((2S,3R)-4-(3-methoxybenzylamino)-1-(3,5-difluorophenyl)-3-hydroxybutan-2-yl)-3-(N-phenylmethan-10-ylsulfonamido)-5-((E)-1-(propoxyimino)ethyl)benzamide] | < 0.1 µM | –
17 | COc1cccc(CNC[C@@H](O)[C@H](Cc2cc(F)cc(F)c2)NC(=O)c2cc(C(C)=O)cc(C(=O)N[C@H](C)c3ccccc3)c2)c1 [Example 44, N^1-((2S,3R)-4-(3-methoxybenzylamino)-1-(3,5-difluorophenyl)-3-hydroxybutan-2-yl)-5-acetyl-N^3-((R)-1-phenylethyl)isophthalamide TFA salt] | < 0.1 µM | –
18 | COc1cccc(CNC[C@@H](O)[C@H](Cc2cc(F)cc(F)c2)NC(=O)c2cc(C(=O)N[C@H](C)c3ccccc3)cc(C(C)O)c2)c1 (stereo partly drawn) [Example 45, N^1-((2S,3R)-4-(3-methoxybenzylamino)-1-(3,5-difluorophenyl)-3-hydroxybutan-2-yl)-5-(1-hydroxyethyl)-N^3-((R)-1-phenylethyl)isophthalamide TFA salt] | – | < 0.1 µM
19 | C=CCO/N=C(/C)c1cc(C(=O)N[C@@H](Cc2cc(F)cc(F)c2)[C@H](O)CNCc2cccc(OC)c2)cc(C(=O)N[C@H](C)c2ccccc2)c1 [Example 46, N^1-((2S,3R)-4-(3-methoxybenzylamino)-1-(3,5-difluorophenyl)-3-hydroxybutan-2-yl)-5-((Z)-1-(allyloxyimino)ethyl)-N^3-((R)-1-phenylethyl)isophthalamide TFA salt] | – | < 0.1 µM
